Test: xn = mol fraction of the nth substance listed
Conditions: 101.33 kPa, Liquid

Cc1cccnc1 [3-methylpyridine] + O
Conditions	mass density [kg/m3]	viscosity [mPa·s]
293.15 K, x1 = 0.0101	998	1.149
293.15 K, x1 = 0.0211	997.8	1.301
293.15 K, x1 = 0.033	997.5	1.467
293.15 K, x1 = 0.0462	997.2	1.626
293.15 K, x1 = 0.114	995.4	2.301
293.15 K, x1 = 0.225	992.1	2.914
293.15 K, x1 = 0.36	986.9	3.04
293.15 K, x1 = 0.436	983.1	2.9
293.15 K, x1 = 0.5	979.7	2.733
293.15 K, x1 = 0.6	974.3	2.386
293.15 K, x1 = 0.7	969	2.021
293.15 K, x1 = 0.8	964.1	1.655
293.15 K, x1 = 0.9	959.8	1.31
293.15 K, x1 = 1	956	0.9459
303.15 K, x1 = 0.0101	995.1	0.913
303.15 K, x1 = 0.0211	994.4	1.021
303.15 K, x1 = 0.033	993.7	1.133
303.15 K, x1 = 0.0462	992.9	1.255
303.15 K, x1 = 0.114	989.3	1.705
303.15 K, x1 = 0.225	984	2.022
303.15 K, x1 = 0.36	977.8	2.034
303.15 K, x1 = 0.436	973.6	1.938
303.15 K, x1 = 0.5	970.2	1.83
303.15 K, x1 = 0.6	964.5	1.638
303.15 K, x1 = 0.7	959.4	1.449
303.15 K, x1 = 0.8	954.6	1.255
303.15 K, x1 = 0.9	950.3	1.049
303.15 K, x1 = 1	946.6	0.8318
313.15 K, x1 = 0.0101	991.2	0.731
313.15 K, x1 = 0.0211	990.2	0.8139
313.15 K, x1 = 0.033	989.2	0.8959
313.15 K, x1 = 0.0462	988	0.98
313.15 K, x1 = 0.114	982.9	1.307
313.15 K, x1 = 0.225	976.4	1.572
313.15 K, x1 = 0.36	968.9	1.588
313.15 K, x1 = 0.436	964.7	1.511
313.15 K, x1 = 0.5	961	1.43
313.15 K, x1 = 0.6	955.3	1.286
313.15 K, x1 = 0.7	950.2	1.149
313.15 K, x1 = 0.8	945.5	1.018
313.15 K, x1 = 0.9	941.3	0.884
313.15 K, x1 = 1	937.7	0.7352
323.15 K, x1 = 0.0101	986.6	0.6101
323.15 K, x1 = 0.0211	985.2	0.6693
323.15 K, x1 = 0.033	983.7	0.7356
323.15 K, x1 = 0.0462	982.3	0.7921
323.15 K, x1 = 0.114	975.6	1.048
323.15 K, x1 = 0.225	967.7	1.23
323.15 K, x1 = 0.36	959.4	1.255
323.15 K, x1 = 0.436	954.9	1.207
323.15 K, x1 = 0.5	951.2	1.162
323.15 K, x1 = 0.6	945.5	1.071
323.15 K, x1 = 0.7	940.5	0.9777
323.15 K, x1 = 0.8	935.9	0.8686
323.15 K, x1 = 0.9	931.8	0.7536
323.15 K, x1 = 1	928.3	0.6565
333.15 K, x1 = 0.0101	981.4	0.5203
333.15 K, x1 = 0.0211	979.6	0.5735
333.15 K, x1 = 0.033	977.7	0.6346
333.15 K, x1 = 0.0462	975.8	0.6624
333.15 K, x1 = 0.114	967.9	0.866
333.15 K, x1 = 0.225	958.7	1.015
333.15 K, x1 = 0.36	950	1.042
333.15 K, x1 = 0.436	945.4	1.004
333.15 K, x1 = 0.5	941.8	0.9701
333.15 K, x1 = 0.6	936.1	0.8988
333.15 K, x1 = 0.7	931.1	0.8305
333.15 K, x1 = 0.8	926.7	0.7562
333.15 K, x1 = 0.9	922.7	0.6699
333.15 K, x1 = 1	919.3	0.5936
343.15 K, x1 = 0.0101	975.8	0.4504
343.15 K, x1 = 0.0211	973.7	0.4888
343.15 K, x1 = 0.033	971.7	0.5355
343.15 K, x1 = 0.0462	969.4	0.5782
343.15 K, x1 = 0.114	960.5	0.7454
343.15 K, x1 = 0.225	950.2	0.8494
343.15 K, x1 = 0.36	940.4	0.8766
343.15 K, x1 = 0.436	936	0.8557
343.15 K, x1 = 0.5	932.3	0.8315
343.15 K, x1 = 0.6	926.8	0.786
343.15 K, x1 = 0.7	921.8	0.7335
343.15 K, x1 = 0.8	917.4	0.673
343.15 K, x1 = 0.9	913.6	0.6135
343.15 K, x1 = 1	910.3	0.539

Source: the NIST ThermoML archive (doi:10.1016/j.jct.2004.11.009)
